Patent US20070225245A1, “Viral vector driven mutant bacterial cytosine deaminase gene and uses thereof” (priority 1998, published 2007)
Converted amounts (≈) assume the structure as drawn.

Columns and labels:
MIA PaCa-2 xenografts = assay: Subcutaneous human pancreatic tumor xenograft, tumor growth; assay type: in vivo, athymic nude mice
Description: Treatment was started at the time of established tumor growth (Day 0 equal to 17 days after tumor cell injection). Animals were injected i.t. with PBS or 5×10^7 TCID50 of AdbCD-D314A on Days 0, 7, and 14, and then irradiated with 2 Gy on Days 1, 8 and 15 using a ^60Co gamma irradiator, and 400 mg/kg of 5-FC was i.p. administered at qd×5/week for 3 weeks starting on Day 1. Data points represent the mean change in tumor surface area relative to Day 0 for each group of animals.
To evaluate in vivo therapeutic efficacy of the combination of AdbCD-D314A/5-FC and radiation treatment, 16×10^6 MIA PaCa-2 tumor cells were resuspended 1:1 (v/v) in Matrigel (Becton Dickinson) and injected s.c. into female athymic nude mice. Treatment was started 17 days post-tumor cell injection at the time of established tumor growth, noted as Day 0. Animals were randomly divided into groups receiving different treatments: 1) AdbCD-D314A plus 5-FC; 2) AdbCD-D314A plus 5-FC in combination with radiation; 3) PBS plus 5-FC in combination with radiation; 4) PBS plus 5-FC. Two groups of mice (# 1 and 2) were injected i.t. with 5×10^7 TCID50 AdbCD-D314A on Days 0, 7, and 14. […] Tumor size was monitored twice a week using digital Vernier calipers. Tumor surface areas were calculated as width×length (mm^2).

[1] = tested on: BXPC-3 pancreatic tumor cells transfected with AdCMVCD; assay: MRS of 5-FC to 5-FU conversion in vitro; assay type: cell-based, human; conditions: after 120 minutes; 3.8 mM 5-FC
Description: In vitro models of molecular chemotherapy were developed using the AdCMVCD cytosine deaminase toxin gene for the transfection of both human pancreatic and colon cancer cell lines (BXPC-3, WiDR, LS174T). […] In this study, an in vitro treatment model was proposed using 3×10^6 BXPC-3 pancreatic tumor cells transfected at a MOI of 100 with AdCMVCD. These cells were then examined by MRS at 0, 2, 6 and 24 hours for conversion of 5-FC to 5-FU.
Initial studies have shown the sensitivity of fluorine spectroscopy by its ability to detect 3.8 mM 5-FC when initially added to transfected BXPC-3 cells. […] However, after 120 minutes, the signal for 5-FC had dropped to 50% of its original intensity and the signal for 5-FU had increased to approximately 40% of the original 5-FC signal indicating conversion of 5-FC to 5-FU.

[2] = tested on: Intracranial D54MG gliomas; assay: Survival, intracranial glioma, HSV and 5-FC; assay type: in vivo, athymic nude mice; conditions: saline and 5-FC
Description: Two days later, mice were begun on twice daily intraperitoneal injections of saline (1 ml) or 5-FC (500 mg/kg). Mice were followed for survival.
Studies were undertaken to determine the efficacy of the HSV construct, M012, in in vivo murine glioma models. […] The median survival of animals receiving saline plus 5-FC was 34 days. In a similar study with the D54MG intracranial model, median survival of mice injected intratumorally with M012 and administered 5-FC was 40 days, compared to 27 days with M012 plus saline and 19 days with saline and 5-FC (FIG. 14).

PANC-1 = assay: Crystal violet cytotoxicity assay (5-FU, or 5-FC after Ad infection); assay type: cell-based; conditions: Homo sapiens, 120 h, 5 days
Source text: (§1) Twenty-four hours later cells were infected with AdbCD-D314A or AdbCDwt at various MOI.

S2-013 = assay: as above; assay type: cell-based; conditions: Homo sapiens, 120 h, 5 days
Source text: as §1

MIA PaCa-2 = assay: as above; assay type: cell-based; conditions: Homo sapiens, 120 h, 5 days
Source text: as §1

BXPC-3 = assay: as above; assay type: cell-based; conditions: Homo sapiens, 120 h, 5 days
Source text: as §1

D54MG [3] = assay: as above; assay type: cell-based; conditions: Homo sapiens, 120 h, 5 days
Source text: as §1

Panc2.03 = assay: as above; assay type: cell-based; conditions: Homo sapiens, Panc203, 120 h, 5 days
Source text: as §1

U251MG [4] = assay: as above; assay type: cell-based; conditions: Homo sapiens, U-251, 120 h, 5 days
Source text: as §1

U87MG [5] = assay: as above; assay type: cell-based; conditions: Homo sapiens, U-87 MG, 120 h, 5 days
Source text: as §1

S2-VP10 = assay: as above; assay type: cell-based; conditions: Homo sapiens, 120 h, 5 days
Source text: as §1

D54MG [6] = assay: 5-FC or 5-FU toxicity (MTS) in Ad-infected cells; assay type: cell-based; conditions: Homo sapiens, Table 14, MOI 0
Description: (§2) Next, cytosine deaminase was administered to glioma cells via the replication deficient adenovirus. Glioma cells plated in T25 flasks were infected with AdCMVCD at several multiplicities of infection (MOI 0-300 pfu/cell) for 1 h at 37° C. At twenty-four hours post-infection, cells were harvested, replated at 5×10^3 cells/well in 96 well plates, and allowed to adhere overnight. […]
(§3) To test this hypothesis, 5-FC toxicity (IC50) was compared in cells infected with AdCMVCD versus AdCDUPRT. […] In Table 13 mean 5-FC IC50 was obtained from 2-5 separate experiments. Cells were infected with AdCMVCD or AdCDUPRT at the indicated MOI (pfu/cell) for 1 h at 37° C. 5-FC toxicity was determined by MTS assay 5 days after drug addition.

U251MG [7] = assay: 5-FC or 5-FU toxicity (MTS) in Ad-infected cells; assay type: cell-based; conditions: Homo sapiens, U-251, Table 14, MOI 0
Description: as §2, §3

U87MG [8] = assay: 5-FC or 5-FU toxicity (MTS) in Ad-infected cells; assay type: cell-based; conditions: Homo sapiens, U-87 MG, Table 14, MOI 0
Description: as §2, §3

Row | SMILES | mean time to tumor doubling (MIA PaCa-2 xenografts; PBS plus 5-FC) [days] | mean time to tumor doubling (MIA PaCa-2 xenografts; PBS plus 5-FC in combination with radiation) [days] | 5-FC MRS signal, % of its original intensity [1] [%] | median survival [2] [days] | IC50 (PANC-1) [µg/mL] | IC50 (S2-013) [µg/mL] | IC50 (MIA PaCa-2) [µg/mL] | IC50 (BXPC-3) [µg/mL] | IC50 (D54MG [3]) [µg/mL] | IC50 (Panc2.03) [µg/mL] | IC50 (U251MG [4]) [µg/mL] | IC50 (U87MG [5]) [µg/mL] | IC50 (S2-VP10) [µg/mL] | 5-FU MRS signal, % of the original 5-FC signal [1] | IC50 (D54MG [6]) [µg/mL] | IC50 (U251MG [7]) [µg/mL] | IC50 (U87MG [8]) [µg/mL]
1 | Nc1nc(=O)[nH]cc1F [5-FC, 5-fluorocytosine] | 14 | 30 | 50 | 19 | – | – | – | – | – | – | – | – | – | – | – | – | –
2 | O=c1[nH]cc(F)c(=O)[nH]1 [5-FU, 5-fluorouracil] | – | – | – | – | 1.5 ± 0.5 (≈ 11.5 µM) | 0.5 ± 0.1 (≈ 3.84 µM) | 1.4 (≈ 10.8 µM) | 0.1 (≈ 0.769 µM) | 3.9 ± 0.8 (≈ 30 µM) | 12.4 (≈ 95.3 µM) | 2.5 ± 1.2 (≈ 19.2 µM) | 0.9 ± 0.5 (≈ 6.92 µM) | 2.7 ± 0.1 (≈ 20.8 µM) | approximately 40% | 1.3 (≈ 9.99 µM) | 0.4 (≈ 3.08 µM) | 1.8 (≈ 13.8 µM)
